Measurements taken from patent publication US7459481B2, “Stimulation of CPT-1 as a means to reduce weight” (The Johns Hopkins University School of Medicine Licensing …, priority 2002, dated 2008).

What was measured:
[1] = Respiratory exchange ratio by indirect calorimetry (Oxymax) in mice; format: in vivo
Description: In keeping with the C75 effect on both human and murine CPT-1 and fatty acid metabolism, C75 induces a profound and rapid stimulation of fatty acid oxidation in vivo. Mice were maintained in the Oxymax calorimeter (Oxymax Equal Flow System®, Columbus Instruments, Columbus, Ohio). Oxygen consumption and CO2 production was measured in up to four mice simultaneously using the indirect calorimeter. Measurements were recorded every 15 minutes over the entire course of the experiments. The respiratory exchange ratio (RER) was calculated by the Oxymax® software version 5.9. RER is defined as the ratio of CO2 to O2 at any given time irrespective if equilibrium was reached. Mice were maintained on water and mouse chow ad libitum. In the control mice (FIG. 8A), note the diurnal variation of RER indicating feeding and resting cycles of the animals. An RER of 1 is consistent with oxidation of carbohydrates while 0.7 indicates oxidation of fatty acids. […] C75 treatment at 30 mg/kg disrupts the diurnal pattern of the control mice, showing a rapid drop in RER to complete oxidation of fatty acids within about 2 hours. […] Importantly, the rate of decline of RER was similar to that observed for animals deprived of food (data not shown).

FAS = FAS (Homo sapiens, UniProt P49327); experiment: FAS activity, malonyl-CoA dependent oxidation of NADPH at OD340; format: biochemical
Description: (§1) FAS activity was measured by monitoring the malonyl-CoA dependent oxidation of NADPH spectrophotometrically at OD340 in 96-well plates, as described in International Patent Publication WO 2004/005277. The IC50 for the compounds against FAS was determined by plotting the change in OD340 against time for each inhibitor concentration tested and determining the rate of change by linear regression. The concentration of a particular compound yielding 50% inhibition of the rate for FAS in the absence of the compound is the IC50. Stimulation of CPT-1 activity was measured as described in Example 2, except the cells were preincubated with the compound for 2 hours at the concentrations indicated in the table. Stimulation of Fatty acid oxidation was determined as described in Example 1 for cells preincubated with the compounds at the concentrations indicated in the table.

MCF-7 cells = experiment: Fatty acid oxidation ([1-14C]palmitate to 14CO2) in MCF-7 cells; format: cell-based, human
Description: (§2) Human breast cancer cell line MCF-7 was obtained from the American Type Culture Collection. 1×10^6 MCF-7 cells were plated in T-25 flasks in triplicate and incubated overnight at 37° C. Drugs were then added as indicated diluted from 5 mg/ml stock in DMSO. After 2 hours, medium with drugs was removed and cells were preincubated for 30 min. with 1.5 ml of the following buffer: 114 mM NaCl, 4.7 mM KCl, 1.2 mM KH2PO4, 1.2 mM MgSO4, glucose 11 mM. After preincubation, 200 μl of assay buffer was added containing: 114 mM NaCl, 4.7 mM KCl, 1.2 mM KH2PO4, 1.2 mM MgSO4, glucose 11 mM, 2.5 mM palmitate (containing with 10 μCi of [1-^14C]palmitate) bound to albumin, 0.8 mM L-carnitine, and cells were incubated at 37° C. for 2 h. Following the incubation, 400 μl of benzethonium hydrochloride was added to the center well to collect released ^14CO2. Immediately, the reaction was stopped by adding 500 μl of 7% perchloric acid to the cells. The flasks with wells were then incubated for 2 h at 37° C. after which the benzothonium hydrochloride was removed and counted for ^14C. Blanks were prepared by adding 500 μl of 7% perchloric acid to the cells prior to the incubation with the assay buffer for 2 h.
as §1

3T3-L1 adipocytes = experiment: Fatty acid oxidation in differentiated 3T3-L1 adipocytes; format: cell-based, mouse; conditions: 20 μg/ml or greater, 2 hours, FIG. 6
Description: as §2, with “Following the incubation, 400 μl of benzethonium hydrochloride was added to the center well to collect released ^14CO2. Immediately, the reaction was stopped by adding 500 μl of 7% perchloric acid to the cells.” left out, “Blanks were prepared by adding 500 μl of 7% perchloric acid to the cells prior to the incubation with the assay buffer for 2 h.” left out
(§3) To expand the study of effects of C75 on fatty acid metabolism beyond cancer cell lines to normal adipocytes, differentiated (non-transformed) mouse NIH 3T3-L1 adipocytes were used in assays similar to those performed with the MCF-7 cells. […] The differentiated cells were ready to be used for experiments in 7-10 days.
(§4) C75 increased CPT-1 activity and fatty acid metabolism in the NIH 3T3-L1 cells differentiated into adipocytes. […] CPT-1 activity, fatty acid oxidation, and total cellular ATP were measured as described in Examples 2, 1, and 4. […]

CPT-1 = CPT-1 activity in differentiated 3T3-L1 adipocytes; format: cell-based, mouse; conditions: 2 hours
Description: CPT-1 activity was assayed in MCF-7 cells by the following published procedure: MCF-7 cells were plated in DMEM with 10% fetal bovine serum at 10^6 cells in 24-well plates in triplicate. Following overnight incubation at 37° C., the medium was removed and replaced with 700 μl of assay medium consisting of: 50 mM imidazole, 70 mM KCl, 80 mM sucrose, 1 mM EGTA, 2 mM MgCl2, 1 mM DTT, 1 mM KCN, 1 mM ATP, 0.1% fatty acid free bovine serum albumin, 70 μM palmitoyl-CoA, 0.25 μCi [methyl-^14C]L-carnitine, 40 μg digitonin with or without 20 μM malonyl-CoA. After incubation for 6 minutes at 37° C., the reaction was stopped by the addition of 500 μl of ice-cold 4 M perchloric acid. Cells were then harvested and centrifuged at 13,000×g for 5 min. […] The butanol phase was counted by liquid scintillation and represents the acylcarnitine derivative.
as §3, §4

Chain of FAS (P49327 whole entry): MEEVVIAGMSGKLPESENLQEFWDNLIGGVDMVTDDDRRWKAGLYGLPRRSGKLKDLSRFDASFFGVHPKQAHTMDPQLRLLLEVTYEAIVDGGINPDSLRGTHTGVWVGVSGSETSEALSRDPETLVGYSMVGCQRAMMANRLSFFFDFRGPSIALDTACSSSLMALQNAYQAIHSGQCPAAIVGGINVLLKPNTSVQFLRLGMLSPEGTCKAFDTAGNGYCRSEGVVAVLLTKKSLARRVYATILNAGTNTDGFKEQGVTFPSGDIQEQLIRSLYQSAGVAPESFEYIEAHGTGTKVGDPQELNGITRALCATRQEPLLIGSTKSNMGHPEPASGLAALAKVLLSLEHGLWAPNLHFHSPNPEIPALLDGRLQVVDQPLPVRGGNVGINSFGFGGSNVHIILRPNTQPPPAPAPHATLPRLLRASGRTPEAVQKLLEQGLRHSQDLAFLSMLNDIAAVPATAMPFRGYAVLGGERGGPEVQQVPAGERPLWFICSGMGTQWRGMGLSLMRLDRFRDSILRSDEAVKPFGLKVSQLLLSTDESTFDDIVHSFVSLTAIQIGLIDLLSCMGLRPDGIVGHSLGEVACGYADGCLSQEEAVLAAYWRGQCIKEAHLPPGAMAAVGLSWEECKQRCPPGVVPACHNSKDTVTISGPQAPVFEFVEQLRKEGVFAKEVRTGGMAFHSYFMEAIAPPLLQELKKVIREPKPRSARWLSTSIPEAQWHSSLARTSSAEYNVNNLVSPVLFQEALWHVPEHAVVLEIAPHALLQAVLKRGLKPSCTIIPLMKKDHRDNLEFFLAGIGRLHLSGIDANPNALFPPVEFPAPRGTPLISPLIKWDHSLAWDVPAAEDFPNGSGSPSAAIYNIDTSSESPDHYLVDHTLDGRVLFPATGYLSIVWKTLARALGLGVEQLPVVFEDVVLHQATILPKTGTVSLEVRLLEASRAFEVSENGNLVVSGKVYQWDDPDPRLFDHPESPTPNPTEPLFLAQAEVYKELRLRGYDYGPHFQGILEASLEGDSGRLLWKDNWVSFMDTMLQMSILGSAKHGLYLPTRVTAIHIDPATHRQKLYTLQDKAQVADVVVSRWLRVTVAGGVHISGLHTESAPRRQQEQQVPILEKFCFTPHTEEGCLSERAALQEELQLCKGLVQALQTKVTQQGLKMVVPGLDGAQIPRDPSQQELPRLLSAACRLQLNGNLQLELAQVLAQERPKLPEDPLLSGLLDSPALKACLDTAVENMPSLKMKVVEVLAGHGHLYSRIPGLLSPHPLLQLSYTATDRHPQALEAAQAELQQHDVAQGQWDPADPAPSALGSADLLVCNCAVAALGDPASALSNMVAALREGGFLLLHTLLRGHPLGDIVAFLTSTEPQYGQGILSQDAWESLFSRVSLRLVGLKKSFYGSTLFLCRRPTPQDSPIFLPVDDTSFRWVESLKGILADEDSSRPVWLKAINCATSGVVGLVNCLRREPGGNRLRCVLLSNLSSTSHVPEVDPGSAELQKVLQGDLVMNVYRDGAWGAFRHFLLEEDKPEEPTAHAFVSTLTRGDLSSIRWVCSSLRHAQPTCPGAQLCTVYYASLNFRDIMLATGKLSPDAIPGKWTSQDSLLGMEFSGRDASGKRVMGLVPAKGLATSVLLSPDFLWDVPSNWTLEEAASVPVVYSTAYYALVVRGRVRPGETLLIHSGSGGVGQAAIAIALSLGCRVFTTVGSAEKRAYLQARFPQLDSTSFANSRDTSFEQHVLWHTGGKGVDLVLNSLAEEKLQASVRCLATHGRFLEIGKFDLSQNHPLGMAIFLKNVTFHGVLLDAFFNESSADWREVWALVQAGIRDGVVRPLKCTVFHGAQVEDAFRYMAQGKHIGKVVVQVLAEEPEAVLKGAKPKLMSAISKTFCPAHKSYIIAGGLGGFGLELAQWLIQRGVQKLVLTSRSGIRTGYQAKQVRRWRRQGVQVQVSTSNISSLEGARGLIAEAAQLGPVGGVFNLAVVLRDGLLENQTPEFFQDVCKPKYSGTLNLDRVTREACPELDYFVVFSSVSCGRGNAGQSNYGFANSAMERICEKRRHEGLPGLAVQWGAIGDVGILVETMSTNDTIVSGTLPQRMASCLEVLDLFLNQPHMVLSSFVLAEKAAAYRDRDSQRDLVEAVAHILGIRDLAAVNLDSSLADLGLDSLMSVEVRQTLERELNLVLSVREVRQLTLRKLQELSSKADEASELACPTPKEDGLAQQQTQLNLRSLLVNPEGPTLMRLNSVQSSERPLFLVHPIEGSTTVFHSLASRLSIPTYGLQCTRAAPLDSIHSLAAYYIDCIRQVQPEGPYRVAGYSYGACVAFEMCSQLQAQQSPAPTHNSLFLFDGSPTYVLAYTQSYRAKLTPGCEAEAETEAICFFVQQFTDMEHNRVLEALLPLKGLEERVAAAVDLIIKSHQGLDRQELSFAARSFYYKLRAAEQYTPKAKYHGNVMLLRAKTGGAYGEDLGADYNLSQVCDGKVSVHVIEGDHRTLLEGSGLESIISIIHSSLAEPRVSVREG

## C=C1C(=O)OC(CCCCCCCC)C1C(=O)O (centres unmarked) [Compound C75]
[1]; 30 mg/kg
  time for RER drop to oxidation of fatty acids: ≤ 2 h
[1]; FIG. 8B
  respiratory exchange ratio (RER) after treatment: ~0.7
FAS
  FAS Inhibition (IC50): 55 µg/mL
MCF-7 cells; 10 μg/mL
  Fatty Acid Oxidation (% Control): 400 % Control
MCF-7 cells; MCF-7, doses from 5-20 μg/ml
  effect on fatty acid oxidation: increased fatty acid oxidation
MCF-7 cells; MCF-7, treated 2 hours before measurement, FIG. 1
  increase in fatty acid oxidation compared to the control: 156%
3T3-L1 adipocytes
  fatty acid oxidation: significantly increased
CPT-1
  increase in CPT-1 activity above control: 377%
